Data on 10 compounds can be found in patent US20250122191A1, “COMPOUNDS AS BCL-2 INHIBITORS” (Fochon Biosciences, Ltd, priority 2021, published 2025).

The structures appear in SMILES notation.

What all share (assay type): cell-based
The test system of one assay is Toledo cells. Description: Cell proliferation assay (MTS), Toledo cells. Particulars: Homo sapiens, 72 h. The gist of the method:
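Toledo cells (RPMI-1640, 10% FBS) seeded at 30000 cells/well, rested 4 h, then exposed 72 h at 37 °C, 5% CO2 to compound at nine final concentrations, 1.5–10000 nM. Viability by MTS (2 h), absorbance at 490 nm. IC50 from the concentration-response.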

A further assay relates to RS4;11-BCL-2 G101V cells. Nature of the assay: Cell proliferation assay (MTS), RS4;11-BCL-2 G101V engineered cells. Particulars: Homo sapiens, 120 h, read-out: RS4, 11 BCL2-G101V IC50. An outline of the steps:
(§1)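 Proliferation IC50 in RS4;11 lines engineered with BCL-2 mutations, measured by MTS at 490 nm after 72 h (D103E, D103Y) or 120 h (G101V, F104L) compound treatment at 37 °C.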

The next assay has as its system RS4;11-BCL-2 D103E cells. Description: Cell proliferation assay (MTS), RS4;11-BCL-2 D103E engineered cells. The following applies: Homo sapiens, 72 h, read-out: RS4, 11 BCL2-D103E IC50. An outline of the steps: as §1

On to `CCOc1nc2[nH]cc(F)c2cc1Oc1cc(N2CCC3(CC2)CC(N2CCN(Cc4ccc(OC)nc4)C[C@H]2c2ccccc2C(C)C)C3)ccc1C(=O)NS(=O)(=O)c1cnc(NC[C@H]2CC[C@](C)(O)CC2)c([N+](=O)[O-])c1` [Example 120, 2-((6-ethoxy-3-fluoro-1H-pyrrolo[2,3-b]pyridin-5-yl)oxy)-N-((6-((((1r,4r)-4-hydroxy-4-methylcyclohexyl)methyl)amino)-5-nitropyridin-3-yl)sulfonyl)-4-(2-((R)-2-(2-isopropylphenyl)-4-((6-methoxypyridin-3-yl)methyl)piperazin-1-yl)-7-azaspiro[3.5]nonan-7-yl)benzamide], for which the IC50 in the assay with Toledo cells, in the assay with RS4;11-BCL-2 G101V cells and in the assay with RS4;11-BCL-2 D103E cells was 1 nM in each case.
`COc1ccc(CN2CCN(C3CC4(CCN(c5ccc(C(=O)NS(=O)(=O)c6cnc(NC[C@H]7CC[C@](C)(O)CC7)c([N+](=O)[O-])c6)c(Oc6cc7c(F)c[nH]c7nc6OC)c5)CC4)C3)[C@H](c3ccccc3C(C)C)C2)nc1` [Example 122, 2-((3-fluoro-6-methoxy-1H-pyrrolo[2,3-b]pyridin-5-yl)oxy)-N-((6-((((1r,4r)-4-hydroxy-4-methylcyclohexyl)methyl)amino)-5-nitropyridin-3-yl)sulfonyl)-4-(2-((R)-2-(2-isopropylphenyl)-4-((5-methoxypyridin-2-yl)methyl)piperazin-1-yl)-7-azaspiro[3.5]nonan-7-yl)benzamide]: the IC50 turned out to be 1 nM in the assay on Toledo cells, 1 nM in the assay on RS4;11-BCL-2 G101V cells and 3 nM with RS4;11-BCL-2 D103E cells.
For `COc1nc2[nH]cc(F)c2cc1Oc1cc(N2CCC3(CC2)CC(N2CCN(Cc4cnn(C5CC5)c4)C[C@H]2c2ccccc2C(C)C)C3)ccc1C(=O)NS(=O)(=O)c1cnc(NC[C@H]2CC[C@](C)(O)CC2)c([N+](=O)[O-])c1` [Example 133, 4-(2-((R)-4-((1-cyclopropyl-1H-pyrazol-4-yl)methyl)-2-(2-isopropylphenyl)piperazin-1-yl)-7-azaspiro[3.5]nonan-7-yl)-2-((3-fluoro-6-methoxy-1H-pyrrolo[2,3-b]pyridin-5-yl)oxy)-N-((6-((((1r,4r)-4-hydroxy-4-methylcyclohexyl)methyl)amino)-5-nitropyridin-3-yl)sulfonyl)benzamide], the IC50 came out at 1 nM in the assay on Toledo cells, 1 nM in the assay with RS4;11-BCL-2 G101V cells and 2 nM with RS4;11-BCL-2 D103E cells.
As to `CCOc1nc2[nH]cc(F)c2cc1Oc1cc(N2CCC3(CC2)CC(N2CCN(CC)C[C@H]2c2ccccc2C(C)C)C3)ccc1C(=O)NS(=O)(=O)c1cnc(NC[C@H]2CC[C@](C)(O)CC2)c([N+](=O)[O-])c1` [Example 141, 2-((6-ethoxy-3-fluoro-1H-pyrrolo[2,3-b]pyridin-5-yl)oxy)-4-(2-((R)-4-ethyl-2-(2-isopropylphenyl)piperazin-1-yl)-7-azaspiro [3.5]nonan-7-yl)-N-((6-((((1r,4r)-4-hydroxy-4-methylcyclohexyl)methyl)amino)-5-nitropyridin-3-yl)sulfonyl)benzamide], the IC50 in the assay with Toledo cells, with RS4;11-BCL-2 G101V cells and in the assay with RS4;11-BCL-2 D103E cells was 1 nM throughout.
Turning to `COCCN1CCN(C2CC3(CCN(c4ccc(C(=O)NS(=O)(=O)c5cnc(NC[C@H]6CC[C@](C)(O)CC6)c([N+](=O)[O-])c5)c(Oc5cnc6[nH]cc(F)c6c5)c4)CC3)C2)[C@H](c2ccccc2C(C)C)C1` [Example 203, 2-((3-fluoro-1H-pyrrolo[2,3-b]pyridin-5-yl)oxy)-N-((6-((((1r,4r)-4-hydroxy-4-methylcyclohexyl)methyl)amino)-5-nitropyridin-3-yl)sulfonyl)-4-(2-((R)-2-(2-isopropylphenyl)-4-(2-methoxyethyl)piperazin-1-yl)-7-azaspiro[3.5]nonan-7-yl)benzamide], the IC50 in the assay on Toledo cells, with RS4;11-BCL-2 G101V cells and in the assay with RS4;11-BCL-2 D103E cells was 1 nM throughout.
Consider `COc1cc(CN2CCN(C3CC4(CCN(c5ccc(C(=O)NS(=O)(=O)c6cnc(NC[C@H]7CC[C@](C)(O)CC7)c([N+](=O)[O-])c6)c(Oc6cnc7[nH]cc(F)c7c6)c5)CC4)C3)[C@H](c3ccccc3C(C)C)C2)ccn1` [Example 243, 2-((3-fluoro-1H-pyrrolo[2,3-b]pyridin-5-yl)oxy)-N-((6-((((1r,4r)-4-hydroxy-4-methylcyclohexyl)methyl)amino)-5-nitropyridin-3-yl)sulfonyl)-4-(2-((R)-2-(2-isopropylphenyl)-4-((2-methoxypyridin-4-yl)methyl)piperazin-1-yl)-7-azaspiro[3.5]nonan-7-yl)benzamide], for which the IC50 in the assay on Toledo cells, in the assay on RS4;11-BCL-2 G101V cells and with RS4;11-BCL-2 D103E cells was 1 nM throughout.
As to `COc1ccc(CN2CCN(C3CC4(CCN(c5ccc(C(=O)NS(=O)(=O)c6cnc(NC[C@H]7CC[C@](C)(O)CC7)c([N+](=O)[O-])c6)c(Oc6cnc7[nH]cc(F)c7c6)c5)CC4)C3)[C@H](c3ccccc3C(C)C)C2)c2nc(C)oc12` [Example 244, 2-((3-fluoro-1H-pyrrolo[2,3-b]pyridin-5-yl)oxy)-N-((6-((((1r,4r)-4-hydroxy-4-methylcyclohexyl)methyl)amino)-5-nitropyridin-3-yl)sulfonyl)-4-(2-((R)-2-(2-isopropylphenyl)-4-((7-methoxy-2-methylbenzo[d]oxazol-4-yl)methyl)piperazin-1-yl)-7-azaspiro[3.5]nonan-7-yl)benzamide], the IC50 in the assay on Toledo cells, in the assay on RS4;11-BCL-2 G101V cells and with RS4;11-BCL-2 D103E cells was 1 nM in each case.
`CC(C)c1ccccc1[C@@H]1CN(Cc2cnn(C3CC3)c2)CCN1C1CC2(CCN(c3ccc(C(=O)NS(=O)(=O)c4cnc(NC[C@H]5CC[C@](C)(O)CC5)c([N+](=O)[O-])c4)c(Oc4cnc5[nH]cc(F)c5c4)c3)CC2)C1` [Example 247, 4-(2-((R)-4-((1-cyclopropyl-1H-pyrazol-4-yl)methyl)-2-(2-isopropylphenyl)piperazin-1-yl)-7-azaspiro[3.5]nonan-7-yl)-2-((3-fluoro-1H-pyrrolo[2,3-b]pyridin-5-yl)oxy)-N-((6-((((1r,4r)-4-hydroxy-4-methylcyclohexyl)methyl)amino)-5-nitropyridin-3-yl)sulfonyl)benzamide]: the IC50 with Toledo cells, in the assay with RS4;11-BCL-2 G101V cells and with RS4;11-BCL-2 D103E cells was 1 nM in each case.
Turning to `COc1c(F)cc(CN2CCN(C3CC4(CCN(c5ccc(C(=O)NS(=O)(=O)c6cnc(NC[C@H]7CC[C@](C)(O)CC7)c([N+](=O)[O-])c6)c(Oc6cnc7[nH]cc(F)c7c6)c5)CC4)C3)[C@H](c3ccccc3C(C)C)C2)cc1F` [Example 248, 4-(2-((R)-4-(3,5-difluoro-4-methoxybenzyl)-2-(2-isopropylphenyl)piperazin-1-yl)-7-azaspiro[3.5]nonan-7-yl)-2-((3-fluoro-1H-pyrrolo[2,3-b]pyridin-5-yl)oxy)-N-((6-((((1r,4r)-4-hydroxy-4-methylcyclohexyl)methyl)amino)-5-nitropyridin-3-yl)sulfonyl)benzamide], the IC50 in the assay on Toledo cells was 1 nM; in the assay on RS4;11-BCL-2 G101V cells it was 1 nM; in the assay on RS4;11-BCL-2 D103E cells, 3 nM.
For `COc1ccc(CN2CCN(C3CC4(CCN(c5ccc(C(=O)NS(=O)(=O)c6cnc(NC[C@H]7CC[C@](C)(O)CC7)c([N+](=O)[O-])c6)c(Oc6cnc7[nH]cc(F)c7c6)c5)CC4)C3)[C@H](c3ccccc3C(C)C)C2)cn1` [Example 252, 2-((3-fluoro-1H-pyrrolo[2,3-b]pyridin-5-yl)oxy)-N-((6-((((1r,4r)-4-hydroxy-4-methylcyclohexyl)methyl)amino)-5-nitropyridin-3-yl)sulfonyl)-4-(2-((R)-2-(2-isopropylphenyl)-4-((6-methoxypyridin-3-yl)methyl)piperazin-1-yl)-7-azaspiro[3.5]nonan-7-yl)benzamide], the half-maximal inhibitory concentration (IC50) with Toledo cells, with RS4;11-BCL-2 G101V cells and with RS4;11-BCL-2 D103E cells was 1 nM throughout.
